For experiment [1], the system named is Acetic Acid-induced Writhing Model. In words: Analgesia test in acetic acid-induced writhing model (oral gavage). As to conditions: CD-1 mice, n=5, mean ± standard error, single oral gavage; for Number of Writhing 5-15 min: 5-15 min after injection of 0.6% glacial acetic acid, acetic acid 2h after administration (Fentanyl intravenous, 10 min after). Dose mg/kg: Fentanyl 0.008, A10-0 18.0, A3 30.0, A10 30.1, A14 30.6, A15 20.6, A17 18.7, A18 32.3, A21 31.8, A22 22.3, A7 40.7, A19 18.4, A23 28.4, A44 32.0, A24 25.5, A53 26.9, A40 34.5, A55 40.5, A57 26.7, A4 30; for Number of Writhing 15-30 min: 15-30 min after injection of 0.6% glacial acetic acid, acetic acid 2h after administration (Fentanyl intravenous, 10 min after). Dose mg/kg: Fentanyl 0.008, A10-0 18.0, A3 30.0, A10 30.1, A14 30.6, A15 20.6, A17 18.7, A18 32.3, A21 31.8, A22 22.3, A7 40.7, A19 18.4, A23 28.4, A44 32.0, A24 25.5, A53 26.9, A40 34.5, A55 40.5, A57 26.7, A4 3; for Time to start writhing: 0.6% glacial acetic acid 2h after administration (Fentanyl intravenous, 10 min after). Dose mg/kg: Fentanyl 0.008, A10-0 18.0, A3 30.0, A10 30.1, A14 30.6, A15 20.6, A17 18.7, A18 32.3, A21 31.8, A22 22.3, A7 40.7, A19 18.4, A23 28.4, A44 32.0, A24 25.5, A53 26.9, A40 34.5, A55 40.5, A57 26.7, A4 30.0; for Number of Writhing Total: total of 5-15 min and 15-30 min after injection of 0.6% glacial acetic acid, acetic acid 2h after administration (Fentanyl intravenous, 10 min after). Dose mg/kg: Fentanyl 0.008, A10-0 18.0, A3 30.0, A10 30.1, A14 30.6, A15 20.6, A17 18.7, A18 32.3, A21 31.8, A22 22.3, A7 40.7, A19 18.4, A23 28.4, A44 32.0, A24 25.5, A53 26.9, A40 34.5, A5. It counts as in vivo. (In general: An intraperitoneal irritant provokes the stretching counted in writhing tests.)

In experiment [2] the test system is inflammatory pain model induced by complete Freund's adjuvant in mice. The experiment is described as follows: Mechanical pain test of inflammatory pain model induced by complete Freund's adjuvant in mice. Format: in vivo, mice (C57BL/6J). As to conditions: C57BL/6J male mice, n=4; tested 0.5h, 2h, 8h, 24h after first administration; Morphine 2 mg/kg subcutaneous; A10-0 5 mg/kg and A3 8.4 mg/kg oral gavage at intervals of 8h.

Consider `COc1cc2c(cc1OC)[C@@H]1Cc3ccc(OC(=O)[C@@H](C)c4ccc(-c5ccccc5)c(F)c4)c(OC)c3CN1CC2` [Compound A4], for which, in experiment [1], the “Number of Writhing 5-15 min” value came out at 14±14, the “Number of Writhing 15-30 min” value is 12±14, the “Time to start writhing” value came out at 154 ± 151 s and the “Number of Writhing Total” value amounted to 26±27.
Regarding `COc1cc2c(cc1OC)[C@@H]1Cc3ccc(O)c(OC)c3CN1CC2` [Compound A10-0, Corydalmine], in experiment [2], the “analgesic effect on the inflammatory pain model in mice (mechanical pain threshold, Fig. 1)” value is reported as “did not have a significant analgesic effect on the inflammatory pain model in mice” and the “effect of reducing the sole-swelling degree in mice (plantar thickness, Fig. 2)” value was “had an effect of reducing the sole-welling degree in mice, but the effect was maintained for a short time”. In experiment [1], the “Number of Writhing 5-15 min” value is given as 4±3, the “Number of Writhing 15-30 min” value was determined as 5±3, the “Time to start writhing” value was 545 ± 221 s and the “Number of Writhing Total” value was 9±2.
Consider `CN1CC[C@]23c4c5ccc(O)c4O[C@H]2[C@@H](O)C=C[C@H]3[C@H]1C5` [Morphine], for which, in experiment [2], the “analgesic effect on the inflammatory pain model in mice (mechanical pain threshold, Fig. 1)” value is listed as “a good analgesic effect on the inflammatory pain mode in mice, but the effect cannot be maintained for a long term” and the “effect of reducing the sole-swelling degree in mice (plantar thickness, Fig. 2)” value was “did not have an effect of reducing the sole-swelling degree in mice”.
